Results reported in PubChem BioAssay (NCI).
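Cultured in 96-well plates, cells were exposed to test compound for 48 hours across five concentrations. TGI: concentration producing complete growth inhibition.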

What was measured:
Assay in all cases: DTP human tumour cell line panel, 48 h
786-0 renal = system: 786-0 renal
A498 renal = system: A498 renal
A549 NSCLC = system: A549 NSCLC
ACHN renal = system: ACHN renal
BT-549 breast = system: BT-549 breast
CAKI-1 renal = system: CAKI-1 renal
CCRF-CEM leukemia = system: CCRF-CEM leukemia
COLO 205 colon = system: COLO 205 colon
DU-145 prostate = system: DU-145 prostate
EKVX NSCLC = system: EKVX NSCLC
HCC-2998 colon = system: HCC-2998 colon
HCT-116 colon = system: HCT-116 colon
HCT-15 colon = system: HCT-15 colon
HOP-62 NSCLC = system: HOP-62 NSCLC
HS 578T breast = system: HS 578T breast
HT29 colon = system: HT29 colon
IGROV1 ovarian = system: IGROV1 ovarian
K-562 leukemia = system: K-562 leukemia
KM12 colon = system: KM12 colon
LOX IMVI melanoma = system: LOX IMVI melanoma
M14 melanoma = system: M14 melanoma
MALME-3M melanoma = system: MALME-3M melanoma
MCF7 breast = system: MCF7 breast
MDA-MB-231 breast = system: MDA-MB-231 breast
MDA-MB-435 = system: MDA-MB-435
MDA-N = system: MDA-N
MOLT-4 leukemia = system: MOLT-4 leukemia
NCI-H226 lung = system: NCI-H226 lung
NCI-H460 lung = system: NCI-H460 lung
NCI-H522 lung = system: NCI-H522 lung
NCI/ADR-RES ovarian = system: NCI/ADR-RES ovarian
OVCAR-3 ovarian = system: OVCAR-3 ovarian
OVCAR-4 ovarian = system: OVCAR-4 ovarian
OVCAR-5 ovarian = system: OVCAR-5 ovarian
OVCAR-8 ovarian = system: OVCAR-8 ovarian
PC-3 prostate = system: PC-3 prostate
RPMI-8226 leukemia = system: RPMI-8226 leukemia
RXF 393 renal = system: RXF 393 renal
SF-268 CNS = system: SF-268 CNS
SF-295 CNS = system: SF-295 CNS
SK-MEL-2 melanoma = system: SK-MEL-2 melanoma
SK-MEL-28 melanoma = system: SK-MEL-28 melanoma
SK-MEL-5 melanoma = system: SK-MEL-5 melanoma
SK-OV-3 ovarian = system: SK-OV-3 ovarian
SN12C renal = system: SN12C renal
SNB-19 CNS = system: SNB-19 CNS
SNB-75 CNS = system: SNB-75 CNS
SR leukemia = system: SR leukemia
SW-620 colon = system: SW-620 colon
T-47D breast = system: T-47D breast
TK-10 renal = system: TK-10 renal
U251 CNS = system: U251 CNS
UACC-257 melanoma = system: UACC-257 melanoma
UACC-62 melanoma = system: UACC-62 melanoma
UO-31 renal = system: UO-31 renal
HL-60(TB) leukemia = system: HL-60(TB) leukemia
NCI-H23 lung = system: NCI-H23 lung
SF-539 CNS = system: SF-539 CNS

Measured: TGI

O=C1c2sc(-c3ccc(Cl)cc3)cc2-n2cccc21
not listed: HL-60(TB) leukemia | NCI-H23 lung | SF-539 CNS
> 100 µM: all other assays above

O=C1c2ccccc2-n2nnnc2C2CSCN12 (configuration not stated)
not listed: HL-60(TB) leukemia | NCI-H23 lung | SF-539 CNS
> 100 µM: all other assays above

N#C/C(N)=C(\C#N)NC=NCCO
not listed: RXF 393 renal
> 100 µM: all other assays above
